From patent US20250171484A1, “METHOD FOR PRODUCING DISACCHARIDE USING BETA-GLUCOSIDASE AND COFACTOR THEREOF AND COMPOSITION FOR INDUCING ENZYME PRODUCTION OF STRAIN OF GENUS TRICHODERMA COMPRISING PRODUCED DISACCHARIDE” (CJ CheilJedang Corporation, priority 2021, published 2025)

System: β-glucosidase (SEQ ID NO: 1)
Test: Disaccharide production from glucose by beta-glucosidase with added divalent metal ion
Format: biochemical, Trichoderma reesei
Conditions: for Concentration (g/L) Cellobiose / Concentration (g/L) Gentiobiose / Concentration (g/L) Isomaltose / Concentration (g/L) Maltose / Concentration (g/L) Sophorose / Concentration (g/L) Trehalose / Concentration (g/L) Total: 1 mM ion, 60° C.; for Concentration (g/L) Total: total equals gentiobiose + sophorose; for Increase/decrease rate (%) Gentiobiose / Increase/decrease rate (%) Sophorose / Increase/decrease rate (%) Total: versus no ion added
Description: Glucose powder with a purity of 95% or more (hydrous crystalline glucose, Daejung Chemicals & Metals) was dissolved using steam to prepare 40 kg of a glucose solution with a concentration of 71% w/w. 0.3 kg of β-glucosidase (SEQ ID NO: 1) was added at a concentration of 1,650 U/ml to the prepared glucose solution, allowed to stand at 60° C. for 7 days to 21 days to prepare a composition comprising disaccharides (Treated Glucose Syrup, TGS). 0.3 kg of β-glucosidase (same as in Example 1) was added to the glucose solution of Example 1 at a concentration of 1,650 U/ml, and 1 mM of divalent ions [manganese ion (Mn^2+), magnesium ion (Mg^2+), zinc ion (Zn^2+), and copper ion (Cu^2+) each] was further added thereto, and allowed to stand at 60° C. for 7 days to 21 days to prepare a composition containing disaccharides. In the compositions prepared in Examples 1 and 2, the production concentration (g/L) and increase/decrease rate (%) of the disaccharides, i.e. trehalose, isomaltose, maltose, cellobiose, gentiobiose, and sophorose were measured, and the results are shown in Table 1 and Table 2 below. The production concentration was analyzed using a Bio-LC system (Dionex ICS-3000, Sunnyvale, CA, United States) equipped with an electrochemical detector and a CarboPac PAI column.

Row | Concentration (g/L) Cellobiose (standing period 7 days) [g/L] | Concentration (g/L) Gentiobiose (standing period 7 days) [g/L] | Concentration (g/L) Isomaltose (standing period 7 days) [g/L] | Concentration (g/L) Maltose (standing period 7 days) [g/L] | Concentration (g/L) Sophorose (standing period 7 days) [g/L] | Concentration (g/L) Trehalose (standing period 7 days) [g/L] | Concentration (g/L) Total (standing period 7 days) [g/L] | Increase/decrease rate (%) Gentiobiose (standing period 7 days) [%] | Increase/decrease rate (%) Sophorose (standing period 7 days) [%] | Increase/decrease rate (%) Total (standing period 7 days) [%] | Concentration (g/L) Cellobiose (standing period 14 days) [g/L] | Concentration (g/L) Gentiobiose (standing period 14 days) [g/L] | Concentration (g/L) Isomaltose (standing period 14 days) [g/L] | Concentration (g/L) Maltose (standing period 14 days) [g/L] | Concentration (g/L) Sophorose (standing period 14 days) [g/L] | Concentration (g/L) Trehalose (standing period 14 days) [g/L] | Concentration (g/L) Total (standing period 14 days) [g/L] | Increase/decrease rate (%) Gentiobiose (standing period 14 days) [%] | Increase/decrease rate (%) Sophorose (standing period 14 days) [%] | Increase/decrease rate (%) Total (standing period 14 days) [%] | Compound | other results
1 | 15.1 | 71.7 | 8 | 18.7 | 13.3 | 19.4 | 85 | 22.8 | 92.2 | 30.1 | 15.2 | 82.1 | 10.3 | 15.9 | 17 | 12.6 | 99.1 | 16.3 | 33.5 | 18.9 | [Cu+2] [Cu^2+, copper ion (Cu^2+)] | Concentration (g/L) Cellobiose (standing period 21 days): 15.5 g/L; Concentration (g/L) Gentiobiose (standing period 21 days): 92.4 g/L; Concentration (g/L) Isomaltose (standing period 21 days): 12.4 g/L; Concentration (g/L) Maltose (standing period 21 days): 16.8 g/L; Concentration (g/L) Sophorose (standing period 21 days): 24.3 g/L; Concentration (g/L) Trehalose (standing period 21 days): 13 g/L; Concentration (g/L) Total (standing period 21 days): 116.7 g/L; Increase/decrease rate (%) Gentiobiose (standing period 21 days): 11.7%; Increase/decrease rate (%) Sophorose (standing period 21 days): 53.0%; Increase/decrease rate (%) Total (standing period 21 days): 18.4%
2 | 13.1 | 64.3 | 6.7 | 13.7 | 10.8 | 21.1 | 75.1 | 10 | 56.8 | 15 | 15.6 | 69.4 | 10.6 | 14.6 | 17.4 | 15.3 | 86.8 | −1.6 | 36.5 | 4.2 | [Mg+2] [Mg^2+, magnesium ion (Mg^2+)] | Concentration (g/L) Cellobiose (standing period 21 days): 15.4 g/L; Concentration (g/L) Gentiobiose (standing period 21 days): 74.6 g/L; Concentration (g/L) Isomaltose (standing period 21 days): 13.2 g/L; Concentration (g/L) Maltose (standing period 21 days): 15.4 g/L; Concentration (g/L) Sophorose (standing period 21 days): 23.1 g/L; Concentration (g/L) Trehalose (standing period 21 days): 14.8 g/L; Concentration (g/L) Total (standing period 21 days): 97.7 g/L; Increase/decrease rate (%) Gentiobiose (standing period 21 days): −9.8%; Increase/decrease rate (%) Sophorose (standing period 21 days): 45.3%; Increase/decrease rate (%) Total (standing period 21 days): −0.9%
3 | 14.8 | 69.9 | 7.3 | 15.8 | 12.6 | 22.2 | 82.5 | 19.7 | 82.8 | 26.3 | 14.9 | 81 | 9.8 | 14.3 | 16.4 | 14.3 | 97.3 | 14.7 | 28.4 | 16.8 | [Zn+2] [Zn^2+, zinc ion (Zn^2+)] | Concentration (g/L) Cellobiose (standing period 21 days): 15 g/L; Concentration (g/L) Gentiobiose (standing period 21 days): 92 g/L; Concentration (g/L) Isomaltose (standing period 21 days): 12.5 g/L; Concentration (g/L) Maltose (standing period 21 days): 15.2 g/L; Concentration (g/L) Sophorose (standing period 21 days): 23.4 g/L; Concentration (g/L) Trehalose (standing period 21 days): 14.5 g/L; Concentration (g/L) Total (standing period 21 days): 115.4 g/L; Increase/decrease rate (%) Gentiobiose (standing period 21 days): 11.3%; Increase/decrease rate (%) Sophorose (standing period 21 days): 47.1%; Increase/decrease rate (%) Total (standing period 21 days): 17%
4 | 14.5 | 69.5 | 8.6 | 16.8 | 11.6 | 21.7 | 81.1 | 18.9 | 67.8 | 24.1 | 15.4 | 78 | 12.4 | 16.1 | 16.5 | 14.6 | 94.5 | 10.5 | 29.2 | 13.4 | [Mn+2] [Mn^2+, manganese ion (Mn^2+)] | Concentration (g/L) Cellobiose (standing period 21 days): 15.5 g/L; Concentration (g/L) Gentiobiose (standing period 21 days): 86.5 g/L; Concentration (g/L) Isomaltose (standing period 21 days): 15.7 g/L; Concentration (g/L) Maltose (standing period 21 days): 17.1 g/L; Concentration (g/L) Sophorose (standing period 21 days): 23.6 g/L; Concentration (g/L) Trehalose (standing period 21 days): 14.1 g/L; Concentration (g/L) Total (standing period 21 days): 110.2 g/L; Increase/decrease rate (%) Gentiobiose (standing period 21 days): 4.6%; Increase/decrease rate (%) Sophorose (standing period 21 days): 48.7%; Increase/decrease rate (%) Total (standing period 21 days): 11.7%
